Source: the NIST ThermoML archive (doi:10.1021/acs.jced.7b01006)
Numbers after ± are expanded uncertainties.

Assay: xn = mol fraction of the nth substance listed
Settings: 100 kPa, Liquid; for electrical conductivity: Alternating current cell with electrodes; for viscosity: Falling or rolling sphere viscometry; for mass density: Vibrating tube method

CCC[n+]1ccn(C)c1C.N#C[S-] [1,2-dimethyl-3-propylimidazolium thiocyanate] + CC#N
Settings	electrical conductivity [S/m]	mass density [kg/m3]	viscosity [mPa·s]
288.15 K, x1 = 0.1002	5.17 ± 0.52	884.48 ± 2	7.694 ± 0.11
288.15 K, x1 = 0.2002	4.31 ± 0.43	948.75 ± 2	16.21 ± 0.23
288.15 K, x1 = 0.2998	3.45 ± 0.35	996.05 ± 2.1	29.71 ± 0.44
288.15 K, x1 = 0.4001	2.35 ± 0.24	1028.84 ± 2.1	51.08 ± 0.69
288.15 K, x1 = 0.4997	1.21 ± 0.12	1052.44 ± 2.2	81.84 ± 1.7
288.15 K, x1 = 0.5998	0.95 ± 0.1	1067.26 ± 2.3	120.8 ± 3.8
288.15 K, x1 = 0.7002	0.685 ± 0.069	1077.84 ± 2.4	166.5 ± 7
288.15 K, x1 = 0.7999	0.496 ± 0.05	1085.72 ± 2.5	215 ± 11
288.15 K, x1 = 0.8999	0.378 ± 0.038	1093.78 ± 2.7	264.8 ± 15
288.15 K, x1 = 1	0.255 ± 0.026	1099.81 ± 2.9	316.5 ± 20
293.15 K, x1 = 0.1002	5.5 ± 0.55	880.24 ± 2	5.454 ± 0.076
293.15 K, x1 = 0.2002	4.67 ± 0.47	945.16 ± 2	11.9 ± 0.2
293.15 K, x1 = 0.2998	3.84 ± 0.38	992.52 ± 2.1	22.12 ± 0.33
293.15 K, x1 = 0.4001	2.64 ± 0.26	1025.75 ± 2.1	37.64 ± 0.58
293.15 K, x1 = 0.4997	1.46 ± 0.15	1049.28 ± 2.2	58.62 ± 0.88
293.15 K, x1 = 0.5998	1.16 ± 0.12	1064.44 ± 2.3	85.72 ± 1.9
293.15 K, x1 = 0.7002	0.883 ± 0.088	1075.11 ± 2.4	117.1 ± 3.6
293.15 K, x1 = 0.7999	0.639 ± 0.064	1083.11 ± 2.5	150.3 ± 5.9
293.15 K, x1 = 0.8999	0.478 ± 0.048	1090.97 ± 2.7	183.5 ± 8.4
293.15 K, x1 = 1	0.361 ± 0.036	1096.75 ± 2.9	215.8 ± 11
298.15 K, x1 = 0.1002	5.83 ± 0.58	876.09 ± 2	3.864 ± 0.054
298.15 K, x1 = 0.2002	5.05 ± 0.51	941.45 ± 2	8.717 ± 0.12
298.15 K, x1 = 0.2998	4.27 ± 0.43	988.89 ± 2.1	16.33 ± 0.24
298.15 K, x1 = 0.4001	2.98 ± 0.3	1022.71 ± 2.1	27.66 ± 0.42
298.15 K, x1 = 0.4997	1.72 ± 0.17	1046.39 ± 2.2	42.09 ± 0.67
298.15 K, x1 = 0.5998	1.4 ± 0.14	1061.68 ± 2.3	60.63 ± 0.97
298.15 K, x1 = 0.7002	1.08 ± 0.11	1072.2 ± 2.4	82.01 ± 1.8
298.15 K, x1 = 0.7999	0.789 ± 0.079	1080.57 ± 2.5	105 ± 3
298.15 K, x1 = 0.8999	0.589 ± 0.059	1088.08 ± 2.7	128.8 ± 4.5
298.15 K, x1 = 1	0.459 ± 0.046	1093.67 ± 2.9	151.9 ± 6.1
303.15 K, x1 = 0.1002	6.16 ± 0.62	871.55 ± 2	2.697 ± 0.038
303.15 K, x1 = 0.2002	5.43 ± 0.54	937.88 ± 2	6.468 ± 0.092
303.15 K, x1 = 0.2998	4.71 ± 0.47	985.24 ± 2.1	12.26 ± 0.18
303.15 K, x1 = 0.4001	3.36 ± 0.34	1019.65 ± 2.1	20.36 ± 0.31
303.15 K, x1 = 0.4997	2.01 ± 0.2	1043.41 ± 2.2	30.78 ± 0.49
303.15 K, x1 = 0.5998	1.67 ± 0.17	1058.77 ± 2.3	44.13 ± 0.73
303.15 K, x1 = 0.7002	1.32 ± 0.13	1069.41 ± 2.4	59.49 ± 0.99
303.15 K, x1 = 0.7999	0.973 ± 0.097	1077.79 ± 2.5	76.35 ± 1.6
303.15 K, x1 = 0.8999	0.72 ± 0.072	1085.29 ± 2.7	93.37 ± 2.4
303.15 K, x1 = 1	0.583 ± 0.058	1090.61 ± 2.9	110.1 ± 3.4
308.15 K, x1 = 0.1002	6.49 ± 0.65	867.37 ± 2	1.998 ± 0.028
308.15 K, x1 = 0.2002	5.83 ± 0.58	934.26 ± 2	4.904 ± 0.07
308.15 K, x1 = 0.2998	5.16 ± 0.52	981.65 ± 2.1	9.381 ± 0.14
308.15 K, x1 = 0.4001	3.77 ± 0.38	1016.47 ± 2.1	15.33 ± 0.23
308.15 K, x1 = 0.4997	2.35 ± 0.23	1040.37 ± 2.2	22.87 ± 0.36
308.15 K, x1 = 0.5998	1.98 ± 0.2	1055.91 ± 2.3	32.68 ± 0.54
308.15 K, x1 = 0.7002	1.59 ± 0.16	1066.65 ± 2.4	43.59 ± 0.75
308.15 K, x1 = 0.7999	1.18 ± 0.12	1075.33 ± 2.5	55.98 ± 0.94
308.15 K, x1 = 0.8999	0.874 ± 0.087	1082.59 ± 2.7	69.61 ± 1.4
308.15 K, x1 = 1	0.733 ± 0.073	1087.57 ± 2.9	83.42 ± 2
313.15 K, x1 = 0.1002	6.81 ± 0.68	862.96 ± 2	1.461 ± 0.02
313.15 K, x1 = 0.2002	6.22 ± 0.62	930.69 ± 2	3.715 ± 0.053
313.15 K, x1 = 0.2998	5.62 ± 0.56	978.11 ± 2.1	7.289 ± 0.11
313.15 K, x1 = 0.4001	4.18 ± 0.42	1013.36 ± 2.1	11.81 ± 0.18
313.15 K, x1 = 0.4997	2.71 ± 0.27	1037.38 ± 2.2	17.46 ± 0.28
313.15 K, x1 = 0.5998	2.31 ± 0.23	1053.06 ± 2.2	24.53 ± 0.41
313.15 K, x1 = 0.7002	1.88 ± 0.19	1063.86 ± 2.4	32.94 ± 0.57
313.15 K, x1 = 0.7999	1.42 ± 0.14	1072.65 ± 2.5	42.28 ± 0.76
313.15 K, x1 = 0.8999	1.06 ± 0.11	1079.86 ± 2.7	53.18 ± 0.92
313.15 K, x1 = 1	0.905 ± 0.091	1084.55 ± 2.9	64.78 ± 1.3
318.15 K, x1 = 0.1002	7.13 ± 0.71	858.59 ± 2	1.077 ± 0.015
318.15 K, x1 = 0.2002	6.61 ± 0.66	927.1 ± 2	2.907 ± 0.041
318.15 K, x1 = 0.2998	6.1 ± 0.61	974.43 ± 2.1	5.635 ± 0.083
318.15 K, x1 = 0.4001	4.61 ± 0.46	1010.2 ± 2.1	9.215 ± 0.14
318.15 K, x1 = 0.4997	3.11 ± 0.31	1034.36 ± 2.2	13.52 ± 0.21
318.15 K, x1 = 0.5998	2.67 ± 0.27	1050.24 ± 2.2	18.99 ± 0.31
318.15 K, x1 = 0.7002	2.22 ± 0.22	1060.96 ± 2.4	25.5 ± 0.4
318.15 K, x1 = 0.7999	1.69 ± 0.17	1069.97 ± 2.5	32.82 ± 0.59
318.15 K, x1 = 0.8999	1.26 ± 0.13	1077.03 ± 2.7	41.2 ± 0.77
318.15 K, x1 = 1	1.1 ± 0.11	1081.54 ± 2.9	50.96 ± 0.92
323.15 K, x1 = 0.1002	7.45 ± 0.75	854.24 ± 2	0.775 ± 0.011
323.15 K, x1 = 0.2002	7.01 ± 0.7	923.56 ± 2	2.285 ± 0.033
323.15 K, x1 = 0.2998	6.58 ± 0.66	970.89 ± 2.1	4.456 ± 0.066
323.15 K, x1 = 0.4001	5.05 ± 0.51	1006.99 ± 2.1	7.216 ± 0.11
323.15 K, x1 = 0.4997	3.52 ± 0.35	1031.23 ± 2.2	10.53 ± 0.17
323.15 K, x1 = 0.5998	3.08 ± 0.31	1047.39 ± 2.2	14.68 ± 0.24
323.15 K, x1 = 0.7002	2.6 ± 0.26	1060 ± 2.4	19.99 ± 0.34
323.15 K, x1 = 0.7999	2 ± 0.2	1070 ± 2.5	25.88 ± 0.46
323.15 K, x1 = 0.8999	1.5 ± 0.15	1074.33 ± 2.7	33.37 ± 0.62
323.15 K, x1 = 1	1.33 ± 0.13	1078.54 ± 2.8	41.55 ± 0.81
